The test system of series [1] is isolated left atrium of guinea pig. Put plainly: Effect on isolated left atrium of guinea pig (Pharmacological Test 1, Table 1). Conditions: 1×10^-4 mole, electrically stimulated 0.5 cps, 30° to 32° C. Also noted: species or system guinea pig (male Hartley). As for the experimental part: Effect on isolated left atrium of guinea pig was tested according to the method described in Basic Lectures of Medicine Development, Volume V, Pharmacological Test Methods, Part 2, page 534 (1971) published by Chizin Shokan Kabushiki Kaisha in Japan. A 7-weeks-old male Hartley guinea pig (having body weight of about 350 g) was stunned by a blow on the head. The heart was cut out, and the left atrium was taken out in Krebs-Henseleit solution (prepared by adding distilled water for injection to 6.92 g of sodium chloride, 0.35 g of potassium chloride, 0.28 g of calcium chloride, 0.29 g of magnesium sulfate, 0.16 g of mono-basic potassium phosphate, 2.1 g of sodium bicarbonate and 1.8 g of glucose so that the total amount was 1000 ml) which was sufficiently bubbled with oxygen gas. The isolated left atrium was suspended in Magnus' bath at 30° to 32° C. and isometric contraction was recorded by the pen-writing oscillograph through the strain pressure amplifier connected to the force displacement pickup.
The atrium was stimulated electrically at 0.5 cps for 5 msec under a voltage of 20% above threshold. The nutritive liquid was Krebs-Henseleit solution through which 95% oxygen gas and 5% carbon dioxide was blown. Effect of each sample was tested 60 to 90 minutes after stimulation at which the generated tension became stable. In this test, corresponding concentration of each sample was 1×10^-4 mole.

Series [2] concerns isolated auricule. Put plainly: Effect on isolated auricule (Pharmacological Test 2, Table 2). Conditions: 3×10^-4 mole, 30°±1° C., recording 5 minutes; for activation at 300 µM: Cavia porcellus, 5 min, read-out: Increase in heart rate. Also noted: species or system guinea pig (male Hartley). As for the experimental part:
Effect on isolated auricule was tested according to the method of L. J. Mcleod described in Pharmacological Experiments on Intact Preparations, pages 112-115 (1970). A 7-weeks-old male Hartley guinea pig (having body weight of about 350 g) was killed by a blow on the head. The heart was cut out, and all the tissues except for the auricule were cut away in Ringer-Locke solution (prepared by adding distilled water for injection to 9.0 g of sodium chloride, 0.25 g of potassium chloride, 0.15 g of calcium chloride and 1.0 g of glucose so that the total amount was 1000 ml). One of cotton threads, which were tied to each tip of the auricule, is attached to Magnus' bath and the other to the force displacement pickup. The Magnus' bath was maintained at 30°±1° C. through which oxygen gas was bubbled. When the rhythmic movement and contraction of cardiac muscle became constant, recording by the pen-writing oscillograph was started. After 1 minute, sample compound was injected and recording was conducted for 5 minutes. After completion of recording, the isolated auricule was washed with Ringer-Locke solution until the rhythmic movement and contraction of cardiac muscle became constant. After 30 minutes, recording by the pen-writing oscillograph was started again. In this test, corresponding concentration of each sample was 3×10^-4 mole.

A short description of series [3]: Acute toxicity, Litchfield-Wilcoxon method (Pharmacological Test 3, Table 3). Conditions: mouse, in vivo, ip; intraperitoneal injection, 6-weeks-old male ddY mice. As for the experimental part:
The acute toxicity was determined according to the Litchfield-Wilcoxon method, J. Pharm. Exp. Ther., 96, 99 […] using 6-weeks-old male ddY mice (having body weight of 19-24 g) while administrating the sample compound in intraperitonial injection.

For orientation: LD50 means the dose at which mortality reaches 50%. Read a high LD50 as a less toxic substance.

With `CC1=C(c2ccncc2Cl)SCC(=O)N1`, the Tension increment in series [1] was determined as 426 ± 56 mg. In series [1], `CC1=C(c2ccnnc2)SCC(=O)N1` came in with a Tension increment of 225 ± 123 mg. As to `CC1=C(c2ccncc2)SC(C)C(=O)N1` (stereo not shown) [2,5-dimethyl-6-(4-pyridinyl)-2H-1,4-thiazin-3(4H)-one], the Tension increment in series [1] was 780 ± 93 mg. For the same compound, in series [2], the Tension increment stood at 158 mg and the activation at 300 µM turned out to be 2%. The compound further displayed an LD50 in series [3] of 230 mg/kg. Regarding `CNC1SC(c2ccncc2)=C(C)NC1=O` (stereo not shown) [5-methyl-2-methylamino-6-(4-pyridinyl)-2H-1,4-thiazin-3(4H)-one], in series [1], the Tension increment was 233 ± 46 mg. In turn, `CC1=C(c2ccncc2)SC(N2CCOCC2)C(=O)N1` (stereo not shown) displayed a Tension increment in series [1] of 207 ± 47 mg. For the compound `CC1=C(c2ccnc3ccccc23)SCC(=O)N1` [drawing 25], in series [2], the Tension increment was found to be 190 mg and the activation at 300 µM turned out to be 2.2%. On the same counts, the results for `CC1=C(c2ccncc2)SCC(=O)N1` [drawing 26] are 250 mg and 9.4%.

In the case of `CC1=C(c2ccncc2C#N)SCC(=O)N1`, the Tension increment in series [1] was found to be 214 ± 56 mg. Take `CC1=C(c2ccnc3ccccc23)SCC(=O)N1` [drawing 29]: the LD50 in series [3] turned out to be 270 mg/kg. As for `CC1=C(c2ccncc2)SC(c2ccc(O)cc2)C(=O)N1` (stereo not shown), in series [1], the Tension increment is 230 ± 92 mg. For `CCC1SC(c2ccncc2)=C(C)NC1=O` (stereo not shown) [2-ethyl-5-methyl-6-(4-pyridinyl)-2H-1,4-thiazin-3(4H)-one], the Tension increment in series [1] is reported as 925 ± 32 mg. Further, in series [2], the Tension increment worked out at 226 mg and the activation at 300 µM was found to be 2.4%. Further, the LD50 in series [3] was determined as 130 mg/kg. In the case of `CC1=C(c2ccnc3ccccc23)SCC(=O)N1` [drawing 13], the Tension increment in series [1] worked out at 300 ± 125 mg.

As for `CC1=C(c2ccncc2C=O)SCC(=O)N1`, the Tension increment in series [1] was 278 ± 56 mg.

Compound `CC1=C(c2ccncc2)SCC(=O)N1` [drawing 30] displayed an LD50 in series [3] of 275 mg/kg.

Source of the values: patent publication US4800201A, “1,4-thiazine derivative, and cardiotonic agent comprising it as effective component” (Zenyaku Kogyo Kabushiki Kaisha, priority 1984, dated 1989).
